Data from patent US20230091225A1, “Bifunctional chimeric heterocyclic compounds for targeted degradation of androgen receptors and use thereof” (HINOVA PHARMACEUTICALS INC., priority 2019, published 2023).
Where two headings read alike, the source gives them in different places.

Assays:
Assay type in all cases: cell-based
androgen receptor (AR) [1] = target: T1, androgen receptor (AR) (Homo sapiens, UniProt P10275); assay: Degradation of androgen receptor (AR) protein in VCaP cells by Western blot; details: percentage of degraded AR at 100 nM, VCaP cells, 16 h
T1 sequence (P10275 1-920): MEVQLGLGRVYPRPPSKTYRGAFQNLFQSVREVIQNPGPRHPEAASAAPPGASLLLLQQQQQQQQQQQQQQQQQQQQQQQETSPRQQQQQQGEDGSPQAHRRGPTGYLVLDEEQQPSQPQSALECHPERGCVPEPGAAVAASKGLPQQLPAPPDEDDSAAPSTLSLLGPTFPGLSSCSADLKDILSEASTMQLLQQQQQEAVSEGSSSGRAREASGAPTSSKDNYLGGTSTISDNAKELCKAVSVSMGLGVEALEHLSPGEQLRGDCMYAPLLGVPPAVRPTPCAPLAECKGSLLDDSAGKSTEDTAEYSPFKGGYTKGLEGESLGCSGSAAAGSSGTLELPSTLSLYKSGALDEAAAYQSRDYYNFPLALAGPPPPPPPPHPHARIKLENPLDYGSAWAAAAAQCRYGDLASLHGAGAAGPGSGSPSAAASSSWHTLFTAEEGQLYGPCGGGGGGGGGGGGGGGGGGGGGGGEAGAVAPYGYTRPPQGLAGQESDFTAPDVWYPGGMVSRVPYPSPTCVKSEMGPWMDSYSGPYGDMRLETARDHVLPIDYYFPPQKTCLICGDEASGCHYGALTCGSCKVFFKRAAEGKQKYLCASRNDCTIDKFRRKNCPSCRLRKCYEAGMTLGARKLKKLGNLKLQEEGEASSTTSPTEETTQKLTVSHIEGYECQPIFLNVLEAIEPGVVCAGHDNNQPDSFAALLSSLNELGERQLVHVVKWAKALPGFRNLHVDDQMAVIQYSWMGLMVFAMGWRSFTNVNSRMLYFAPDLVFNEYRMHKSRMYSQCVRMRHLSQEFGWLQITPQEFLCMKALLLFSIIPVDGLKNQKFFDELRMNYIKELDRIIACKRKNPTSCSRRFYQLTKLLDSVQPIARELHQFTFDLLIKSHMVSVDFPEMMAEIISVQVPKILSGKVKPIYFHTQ
In short: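 AR and β-actin levels were read by Western blot with ECL detection, loading 30 μg lysate protein per well. Before lysis, VCaP cells seeded at 5×10^5/well and grown overnight were exposed to compound for 16 h, two wells per concentration, keeping DMSO at 0.1%.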

LNCaP/AR cells = assay: Inhibition of proliferation of LNCaP/AR prostate cancer cells (CCK-8)
androgen receptor (AR) [2] = target: T1, androgen receptor (AR); assay: Degradation of androgen receptor (AR) protein in VCaP cells by ELISA
[3] = 144 h, proliferation of LNCap/AR cells, 6 days, CCK-8, read-out: IC50
[4] = proliferation of LNCap/AR cells, 6 days, CCK-8, read-out: IC50

| inhibition at 0.1 µM (androgen receptor (AR) [1]) [%] | IC50 (LNCaP/AR cells; [3]) [nM] | Compound | also measured |
| --- | --- | --- | --- |
| < 25 | < 100 | CC1(C)[C@H](Oc2ccc(C#N)c(Cl)c2)C(C)(C)[C@H]1N1Cc2nc(N3CCC(CN4CCN(c5cc6c(cc5F)CN(C5CCC(=O)NC5=O)C6=O)CC4)CC3)ccc2C1=O (some centres unmarked) [Compound 205] | – |
| – | – | CC1(C)C(Oc2ccc(C#N)c(Cl)c2)C(C)(C)C1N1Cc2nc(N3CCC(CN4CCN(c5cc6c(cc5F)CN([C@@H]5CCC(=O)NC5=O)C6=O)CC4)CC3)ccc2C1=O (some centres unmarked) [Compound 211] | % degradation (androgen receptor (AR) [1]): D (<25%); IC50 (LNCaP/AR cells; [4]): 100 to 500 nM |
| 50 to 79 | < 100 | CC1(C)[C@H](NC(=O)c2ccc(N3CCC(CN4CCN(c5cc6c(cc5F)CN(C5CCC(=O)NC5=O)C6=O)CC4)CC3)nc2)C(C)(C)[C@H]1Oc1ccc(C#N)c(Cl)c1 (some centres unmarked) [Compound 214] | – |
| – | – | CC1(C)[C@H](Oc2ccc(C#N)c(Cl)c2)C(C)(C)[C@H]1N1Cc2cc(N3CCC(CN4CCN(c5cc6c(cc5F)CN([C@@H]5CCC(=O)NC5=O)C6=O)CC4)CC3)ccc2C1=O [Compound 250] | % degradation (androgen receptor (AR) [1]): D (<25%); IC50 (LNCaP/AR cells; [4]): 100 to 500 nM; % degradation (androgen receptor (AR) [2]): D (key: A: >80%; B: 79%-50%; C: 49%-25%; D: <25%) |
| < 25 | > 1000 | N#Cc1ccc(O[C@H]2CC[C@H](N3Cc4nc(N5CCC(OC6CCN(c7cccc8c7C(=O)N(C7CCC(=O)NC7=O)C8=O)CC6)CC5)ccc4C3=O)CC2)cc1Cl (some centres unmarked) [Compound 59, 2-chloro-4-(((1r,4r)-4-(2-(4-((1-(2-(2,6-dioxopiperidin-3-yl)-1,3-dioxoisoindolin-4-yl)piperidine-4-yl)oxy)piperidin-1-yl)-5-oxo-5H-pyrrolo[3,4-b]pyridin-6(7H)-yl)cyclohexyl)oxy)benzonitrile] | inhibition at 0.1 µM (androgen receptor (AR) [2]; percentage of degraded AR at 100 nM, VCaP cells, 16 h, ELISA, read-out: % degradation): < 25% |
| 25 to 49 | 100 to 500 | CC1(C)[C@H](Oc2ccc(C#N)c(Cl)c2)C(C)(C)[C@H]1N1Cc2cc(N3CCC(CN4CCN(c5cc6c(cc5F)C(=O)N(C5CCC(=O)NC5=O)C6)CC4)CC3)ccc2C1=O (some centres unmarked) [Compound 251] | – |
| < 25 | > 1000 | N#Cc1ccc(OC2C[C@@H]3CN(C(=O)c4ccc(N5CCC(CN6CCN(c7ccc8c(c7)C(=O)N(C7CCC(=O)NC7=O)C8=O)CC6)CC5)nn4)C[C@@H]3C2)cc1Cl (some centres unmarked) [Compound 218] | – |

| Compound | inhibition at 0.1 µM (androgen receptor (AR) [1]) [%] | IC50 (LNCaP/AR cells; [3]) [nM] | also measured |
| --- | --- | --- | --- |
| N#Cc1ccc(O[C@H]2CC[C@H](NC(=O)c3ccc(N4CCC(NC5CCN(c6cc7c(cc6F)C(=O)N(C6CCC(=O)NC6=O)C7=O)CC5)CC4)cc3)CC2)cc1Cl (some centres unmarked) [Compound 219, N-((1r,4r)-4-(3-chloro-4-cyanophenoxy)cyclohexyl)-4-(4-((1-(2-(2,6-dioxopiperidin-3-yl)-6-fluoro-1,3-dioxoisoindolin-5-yl)piperidine-4-yl)amino)piperidin-1-yl)benzamide] | 25 to 49 | – | IC50 (LNCaP/AR cells; LNCaP/AR, 144 h): 500 to 1000 nM |
| CC1(C)[C@H](Oc2ccc(C#N)c(Cl)c2)C(C)(C)[C@H]1N1Cc2cc(N3CCC(CN4CCN(c5ccc6c(c5)CN(C5CCC(=O)NC5=O)C6=O)CC4)CC3)ccc2C1=O (some centres unmarked) [Compound 248] | < 25 | – | IC50 (LNCaP/AR cells; LNCaP/AR, 144 h): 100 to 500 nM |
